Laboratory results as given in patent publication US4703061A, “Gamma-aminobutyric acid derivatives, process for production thereof, and use thereof as medicaments” (priority 1984, dated 1987).
Where a name gives a salt, the structure may show the parent alone.

Experiments:
[1] = tested on: motor activity enhanced by methamphetamine; assay: Antagonistic effect against methamphetamine (automex method); assay type: in vivo, ddY-strain male mice; conditions: for Motor activity (total number of counts): 500 mg/kg i.p. + methamphetamine 3 mg/kg s.c.
Procedure: (§1) In Tests 1 to 4 given below, ddY-strain male mice (body weight 20-25 g) were used, and the experiments were carried out in a semi-soundproof, constant-temperature room kept at a temperature of 23±1° C. and a humidity of 55±2%. The mice were allowed to take feed and water freely.
Test 2: Antagonistic effect against methamphetamine (automex method)
Mice were used in 5-membered groups. Each of the test compounds was intraperitoneally administered to the mice in a predetermined dose, and immediately then, the mice were subcutaneously injected with methamphetamine in a dose of 3 mg/kg. The action of the test compounds on motor activity enhanced by methamphetamine was examined in accordance with the automex method given above.

[2] = tested on: sleeping induced by pentobarbital; assay: Effect of prolonging the time of sleeping induced by pentobarbital; assay type: in vivo, ddY-strain male mice; conditions: pentobarbital sodium 50 mg/kg s.c.
Procedure: as §1
Test 3: Effect of prolonging the time of sleeping induced by pentobarbital
The effects of the test compounds on sleeping induced by pentobarbital were examined. The disappearance of righting reflex for 5 seconds or more was used as an index of sleeping. Mice were divided into 10-membered groups. Each of the test compounds was intraperitoneally administered to the mice in the doses indicated. Immediately then, pentobarbital sodium salt was subcutaneously injected into the mice in a dose of 50 mg/kg, and the sleeping time was compared with that of a group to which pentobarbital alone was injected (control).

[3] = tested on: motor activity induced by atropine; assay: Antagonistic effect against atropine (automex method); assay type: in vivo, ddY-strain male mice
Procedure: as §1
Test 4: Antagonistic effect against atropine (automex method)
Each of the test compounds was intraperitoneally administered to mice divided into 6-membered groups, and immediately then, atropine was subcutaneously injected into the mice in a dose of 30 mg/kg. The effect of each test compound on the enhancement of motor activity induced by atropine was examined in accordance with the automex method.

[4] = tested on: cycloheximide-induced amnesia model; assay: Effects on CXM-induced amnesia (step-down retention test); assay type: in vivo, ddY-strain male mice; conditions: for Escape learning latency (mean ± S.E.) / Step-down latency (mean ± S.E.): retention test 24 hours
Procedure: The test animals used were ddY-strain male mice (body weight 30-35 g). The experiment was carried out indoors at about 20° C., and the mice were allowed to take feed and water freely. 2. Effects on memorized behaviors
A device comprised of a floor grid surrounded on four sides by acrylic glass walls each having a lateral dimension of 21 cm and a wooden platform, 4×4×4 cm in size, fixed centrally to the floor grid was placed in a wooden semi-soundproof box having a size of 21×21×40 cm with a 15W electric bulb suspended from its ceiling.
The floor grid consisted of stainless steel rods, 3 mm in diameter, arranged at intervals of 8 mm. An intermittent electric shock (1 Hz, 0.5 sec., 60 V DC) was applied to the grid by an electric impulse apparatus and an isolator.
A mouse was placed in a predetermined direction on the platform. Immediately after the mouse stepped down onto the floor grid (when the mouse's four limbs left the platform), an electric shock was applied to the floor grid, and the intermittent application of the electric shock was continued until the mouse climbed up the platform to escape from the electric shock. The time which elapsed until the mouse stepped down from the platform (SDL, step down latency) and the time which elapsed until the mouse escaped to the platform from the electric shock (ELL, escape learning latency) were measured.
By the same procedure as in the training test, a mouse was placed on the platform, and its step down latency (SDL) was measured. The cut-off time was 300 seconds.
After the mouse stepped down, or the cut-off time elapsed, the mouse was placed on the floor grid at a corner of the device with its head directed in a direction opposite to the platform. An electric shock was applied to the mouse and its escape learning latency (ELL) was measured.
Mice divided into groups each consisting of not less than 20 mice were subjected to the training test, and immediately then subcutaneously injected with CXM (150 mg/kg). Twenty-four hours later, the mice was subjected to the retention test.
Immediately after administration of CXM or application of ECS, a 0.9% normal saline solution of each of the test compounds was intraperitoneally administered to the mice. Separately, a 5% gum arabic solution of CXM was administered to the mice in a control group.

[5] = background statement; cited from earlier work
[6] = background statement; cited from earlier work; remark: listed apart in the source
[7] = 500 mg/kg i.p., CXM 150 mg/kg s.c.
[8] = 1000 mg/kg i.p., CXM 150 mg/kg s.c.

## CC(C)(CO)C(O)C(=O)NCCCC(=O)O (stereo not drawn) [Ca salt of hopantenic acid, Calcium 4(2,4-dihydroxy3,3-dimethyl-butylamide)butyrate, reference compound]
[1]; 5 minutes
  Motor activity (total number of counts): 26 counts
[1]; 10 minutes
  Motor activity (total number of counts): 55 counts
[1]; 15 minutes
  Motor activity (total number of counts): 94 counts
[1]; 20 minutes
  Motor activity (total number of counts): 144 counts
[1]; 25 minutes
  Motor activity (total number of counts): 273 counts
[1]; 30 minutes
  Motor activity (total number of counts): 408 counts
[1]; 500 mg/kg, result in words
  antagonistic effect against the increase of motor activity induced by methamphetamine: scarcely observed
[2]; 1000 mg/kg i.p.
  Sleeping time: 57.0 ± 6.7 min
[2]; 2000 mg/kg i.p.
  Sleeping time: 67.0 ± 5.9 min
[3]; 600 mg/kg i.p. + atropine 30 mg/kg s.c., 5 minutes
  Motor activity (total number of counts): 16 counts
[3]; 600 mg/kg i.p. + atropine 30 mg/kg s.c., 10 minutes
  Motor activity (total number of counts): 16 counts
[3]; 600 mg/kg i.p. + atropine 30 mg/kg s.c., 15 minutes
  Motor activity (total number of counts): 29 counts
[3]; 600 mg/kg i.p. + atropine 30 mg/kg s.c., 20 minutes
  Motor activity (total number of counts): 56 counts
[3]; 600 mg/kg i.p. + atropine 30 mg/kg s.c., 25 minutes
  Motor activity (total number of counts): 88 counts
[3]; 600 mg/kg i.p. + atropine 30 mg/kg s.c., 30 minutes
  Motor activity (total number of counts): 151 counts
[4]; [7]
  Escape learning latency (mean ± S.E.): 10.3 ± 0.7 s
  Step-down latency (mean ± S.E.): 122.3 ± 13.0 s
[4]; [8]
  Escape learning latency (mean ± S.E.): 8.2 ± 1.0 s
  Step-down latency (mean ± S.E.): 187.7 ± 19.7 s
[4]; 1000 mg/kg i.p., without CXM
  Escape learning latency (mean ± S.E.): 5.6 ± 0.8 s
  Step-down latency (mean ± S.E.): 275.9 ± 9.7 s
[4]; without CXM, vs control group, result in words
  memory activating action: did not show memory activating action

## CN1[C@@H]2CC[C@H]1C[C@@H](OC(=O)C(CO)c1ccccc1)C2 (stereo partly drawn) [Atropine, atropine]
[3]; atropine alone, 30 mg/kg, 5 minutes
  Motor activity (total number of counts): 59 counts
[3]; atropine alone, 30 mg/kg, 10 minutes
  Motor activity (total number of counts): 233 counts
[3]; atropine alone, 30 mg/kg, 15 minutes
  Motor activity (total number of counts): 425 counts
[3]; atropine alone, 30 mg/kg, 20 minutes
  Motor activity (total number of counts): 620 counts
[3]; atropine alone, 30 mg/kg, 25 minutes
  Motor activity (total number of counts): 806 counts
[3]; atropine alone, 30 mg/kg, 30 minutes
  Motor activity (total number of counts): 964 counts

## NCCCC(=O)O [gamma-aminobutyric acid]
[5]
  transmigration through the blood brain barrier: hardly transmigrates through the blood brain barrier
[6]
  excretion into urine: easily excreted into urine
